The source of these data is ChEMBL document CHEMBL4616591, “Propargylamine-derived multi-target directed ligands for Alzheimer's disease therapy” (Bioorg Med Chem Lett, 2020).

Assay [1] addresses Acetylcholinesterase (Torpedo californica, UniProt P04058). As to the kind of experiment: Inhibition of Torpedo californica AChE using acetylthiocholine chloride as substrate peincubated for 15 mins followed by substrate addition measured after 5 mins by Ellman's method. Further details: species or system Tetronarce californica.
For assay [2], the target named is T1, Acetylcholinesterase (Electrophorus electricus, UniProt O42275).
Description: (§1) Inhibition of electric eel AChE by Ellman's method
The target in assay [3] is T2, Acetylcholinesterase (Homo sapiens, UniProt P22303). The experiment in a line: Inhibition of human AChE using acetylthiocholine chloride as substrate peincubated for 15 mins followed by substrate addition measured at 1 min interval by Ellman's method.
Assay [4] concerns the target T1, Acetylcholinesterase. This is another data set of the same source.
Description: Inhibition of electric eel AChE using acetylthiocholine chloride as substrate peincubated for 15 mins followed by substrate addition measured at 1 min interval by Ellman's method
For assay [5], the target named is T3, Cholinesterase (Equus caballus, UniProt P81908). As to the kind of experiment: Inhibition of equine serum BuChE using butylthiocholine chloride as substrate peincubated for 15 mins followed by substrate addition measured at 1 min interval by Ellman's method.
Assay [6] deals with T1, Acetylcholinesterase. This is another data set of the same source.
Description: as §1
The target of assay [7] is T3, Cholinesterase. As to the kind of experiment: Inhibition of equine serum BuChE by Ellman's method.
Assay [8] deals with Amyloid-beta precursor protein (Homo sapiens) (UniProt P05067). As to the kind of experiment: Inhibition of self-induced amyloid beta (1 to 42) (unknown origin) aggregation at 100 uM after 24 hrs in presence of copper by ThT fluorescence assay relative to control.
The target is the same in assay [9]. The experiment in a line: Inhibition of self-induced amyloid beta (1 to 42) (unknown origin) aggregation at 100 uM after 24 hrs by ThT fluorescence assay relative to control.
Assay [10] has as its target T4, Amine oxidase [flavin-containing] B (Rattus norvegicus, UniProt P19643).
T4 sequence (P19643 whole entry): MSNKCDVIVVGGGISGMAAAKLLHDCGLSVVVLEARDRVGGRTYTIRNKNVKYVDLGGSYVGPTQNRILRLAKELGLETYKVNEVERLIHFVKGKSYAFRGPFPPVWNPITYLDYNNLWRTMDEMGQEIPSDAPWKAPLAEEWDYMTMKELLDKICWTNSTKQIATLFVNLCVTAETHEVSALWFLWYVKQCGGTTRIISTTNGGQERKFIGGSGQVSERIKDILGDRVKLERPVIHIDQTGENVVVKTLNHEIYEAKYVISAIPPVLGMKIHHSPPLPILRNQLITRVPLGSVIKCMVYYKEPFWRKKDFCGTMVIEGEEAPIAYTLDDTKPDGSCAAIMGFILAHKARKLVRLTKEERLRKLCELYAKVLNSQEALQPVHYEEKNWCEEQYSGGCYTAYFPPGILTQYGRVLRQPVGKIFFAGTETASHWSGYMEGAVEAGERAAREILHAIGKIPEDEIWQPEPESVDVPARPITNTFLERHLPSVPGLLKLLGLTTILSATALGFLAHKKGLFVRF
As to the kind of experiment: In-vivo inhibition of MAO B in rat brain at 26 mg/kg, po relative to control. Type of assay: functional, organism-based.

In assay [11] the target is T5, Amine oxidase [flavin-containing] A (Rattus norvegicus, UniProt P21396).
T5 sequence (P21396 whole entry): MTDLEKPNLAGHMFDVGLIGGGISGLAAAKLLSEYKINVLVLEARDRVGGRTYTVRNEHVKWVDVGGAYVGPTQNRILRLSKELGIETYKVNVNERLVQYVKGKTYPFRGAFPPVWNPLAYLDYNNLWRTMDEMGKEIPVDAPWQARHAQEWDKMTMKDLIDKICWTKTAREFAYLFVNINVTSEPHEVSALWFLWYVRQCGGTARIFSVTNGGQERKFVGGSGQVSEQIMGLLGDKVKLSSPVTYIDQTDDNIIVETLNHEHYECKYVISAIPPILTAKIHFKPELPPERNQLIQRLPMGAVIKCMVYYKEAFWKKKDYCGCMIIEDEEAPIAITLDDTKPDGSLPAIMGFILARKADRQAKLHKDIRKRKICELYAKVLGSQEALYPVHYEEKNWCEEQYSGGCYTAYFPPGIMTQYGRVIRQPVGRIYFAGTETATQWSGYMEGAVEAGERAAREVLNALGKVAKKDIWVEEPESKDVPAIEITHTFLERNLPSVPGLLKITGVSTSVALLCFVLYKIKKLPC
The experiment in a line: In-vivo inhibition of MAO A in rat brain at 26 mg/kg, po relative to control. Type of assay: functional, organism-based.

In assay [12] the target is Cholinesterase (Homo sapiens) (UniProt P06276). The note with it: 0.6 mg/kg.
Assay [13] addresses T2, Acetylcholinesterase. The conditions noted are these: 0.6 mg/kg.
The target in assay [14] is T6, Amine oxidase [flavin-containing] B (Homo sapiens, UniProt P27338).
T6 sequence (P27338 whole entry): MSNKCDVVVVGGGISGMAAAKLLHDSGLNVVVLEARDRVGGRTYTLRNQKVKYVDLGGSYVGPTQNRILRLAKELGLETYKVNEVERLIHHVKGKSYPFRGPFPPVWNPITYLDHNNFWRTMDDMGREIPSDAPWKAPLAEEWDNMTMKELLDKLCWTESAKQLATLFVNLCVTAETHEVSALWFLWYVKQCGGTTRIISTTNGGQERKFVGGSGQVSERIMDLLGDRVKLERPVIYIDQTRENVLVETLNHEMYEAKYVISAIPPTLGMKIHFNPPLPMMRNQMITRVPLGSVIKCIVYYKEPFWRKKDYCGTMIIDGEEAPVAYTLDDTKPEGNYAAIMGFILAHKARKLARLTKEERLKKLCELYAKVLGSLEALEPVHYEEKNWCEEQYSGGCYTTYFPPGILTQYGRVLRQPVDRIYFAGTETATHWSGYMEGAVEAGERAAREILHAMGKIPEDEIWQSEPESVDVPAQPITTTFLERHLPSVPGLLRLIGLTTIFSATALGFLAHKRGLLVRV
The experiment in a line: Inhibition of human MAO B.

For assay [15], the target named is T7, Amine oxidase [flavin-containing] A (Homo sapiens, UniProt P21397).
T7 sequence (P21397 whole entry): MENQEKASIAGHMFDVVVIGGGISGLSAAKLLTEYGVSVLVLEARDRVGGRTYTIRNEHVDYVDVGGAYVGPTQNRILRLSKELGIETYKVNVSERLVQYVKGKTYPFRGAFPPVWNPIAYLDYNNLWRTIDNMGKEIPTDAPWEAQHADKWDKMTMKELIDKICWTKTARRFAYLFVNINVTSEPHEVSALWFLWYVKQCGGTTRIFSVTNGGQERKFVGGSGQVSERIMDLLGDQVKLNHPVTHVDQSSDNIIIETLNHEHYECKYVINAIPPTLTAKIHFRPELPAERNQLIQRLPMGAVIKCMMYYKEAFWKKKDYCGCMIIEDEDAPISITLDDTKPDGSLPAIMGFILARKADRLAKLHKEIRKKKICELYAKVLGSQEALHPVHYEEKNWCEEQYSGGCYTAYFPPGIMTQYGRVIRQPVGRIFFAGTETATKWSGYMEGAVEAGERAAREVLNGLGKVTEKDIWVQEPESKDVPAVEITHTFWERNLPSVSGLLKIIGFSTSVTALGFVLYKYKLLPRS
As to the kind of experiment: Inhibition of human MAO A.

T2 sequence (P22303 whole entry): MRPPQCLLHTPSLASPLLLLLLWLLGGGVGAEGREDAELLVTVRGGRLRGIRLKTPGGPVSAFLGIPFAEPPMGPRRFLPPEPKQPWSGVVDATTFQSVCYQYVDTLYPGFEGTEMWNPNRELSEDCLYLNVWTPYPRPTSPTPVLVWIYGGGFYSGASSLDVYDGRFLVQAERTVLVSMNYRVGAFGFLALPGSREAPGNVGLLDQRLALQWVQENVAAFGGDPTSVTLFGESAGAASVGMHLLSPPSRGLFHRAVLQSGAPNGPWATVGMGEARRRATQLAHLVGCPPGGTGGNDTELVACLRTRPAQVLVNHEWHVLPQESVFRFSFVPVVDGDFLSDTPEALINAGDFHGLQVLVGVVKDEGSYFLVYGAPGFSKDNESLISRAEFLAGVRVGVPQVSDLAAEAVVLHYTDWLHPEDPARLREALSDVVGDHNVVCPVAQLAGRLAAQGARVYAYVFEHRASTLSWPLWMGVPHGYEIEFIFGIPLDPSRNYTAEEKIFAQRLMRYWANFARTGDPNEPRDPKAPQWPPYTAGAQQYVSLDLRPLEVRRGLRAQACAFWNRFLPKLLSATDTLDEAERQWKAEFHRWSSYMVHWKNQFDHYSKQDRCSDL
Acetylcholinesterase (Torpedo californica, UniProt P04058), sequence (P04058 whole entry): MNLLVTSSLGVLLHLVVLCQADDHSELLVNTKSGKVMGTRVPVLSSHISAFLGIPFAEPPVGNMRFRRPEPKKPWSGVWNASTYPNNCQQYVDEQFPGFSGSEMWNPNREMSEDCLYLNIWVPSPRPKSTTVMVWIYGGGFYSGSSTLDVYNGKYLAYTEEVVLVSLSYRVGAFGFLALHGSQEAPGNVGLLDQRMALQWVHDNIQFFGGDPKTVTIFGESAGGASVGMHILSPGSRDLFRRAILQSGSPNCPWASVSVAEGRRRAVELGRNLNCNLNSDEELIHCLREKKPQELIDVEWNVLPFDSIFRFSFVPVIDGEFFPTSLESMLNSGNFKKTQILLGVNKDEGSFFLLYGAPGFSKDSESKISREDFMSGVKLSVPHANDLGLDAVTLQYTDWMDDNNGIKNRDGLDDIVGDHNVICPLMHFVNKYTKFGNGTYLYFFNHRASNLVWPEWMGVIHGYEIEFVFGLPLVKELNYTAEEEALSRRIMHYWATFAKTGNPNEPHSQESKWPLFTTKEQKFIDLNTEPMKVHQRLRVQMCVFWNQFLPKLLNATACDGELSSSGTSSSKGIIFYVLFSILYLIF
T3 sequence (P81908 whole entry): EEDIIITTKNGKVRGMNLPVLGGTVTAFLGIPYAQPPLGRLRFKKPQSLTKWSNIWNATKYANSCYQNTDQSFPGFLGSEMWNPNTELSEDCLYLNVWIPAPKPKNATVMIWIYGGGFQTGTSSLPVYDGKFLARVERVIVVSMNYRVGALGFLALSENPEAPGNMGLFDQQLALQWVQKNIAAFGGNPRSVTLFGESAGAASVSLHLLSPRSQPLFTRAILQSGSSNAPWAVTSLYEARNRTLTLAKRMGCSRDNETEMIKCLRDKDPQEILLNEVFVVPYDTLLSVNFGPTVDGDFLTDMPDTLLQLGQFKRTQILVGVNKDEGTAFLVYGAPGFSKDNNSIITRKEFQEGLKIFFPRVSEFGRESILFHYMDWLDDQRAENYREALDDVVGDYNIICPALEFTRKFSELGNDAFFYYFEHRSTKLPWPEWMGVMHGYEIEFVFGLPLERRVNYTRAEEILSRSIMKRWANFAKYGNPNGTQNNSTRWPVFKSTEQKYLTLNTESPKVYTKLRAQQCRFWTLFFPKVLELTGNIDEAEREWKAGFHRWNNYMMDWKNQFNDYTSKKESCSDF
T1 sequence (O42275 whole entry): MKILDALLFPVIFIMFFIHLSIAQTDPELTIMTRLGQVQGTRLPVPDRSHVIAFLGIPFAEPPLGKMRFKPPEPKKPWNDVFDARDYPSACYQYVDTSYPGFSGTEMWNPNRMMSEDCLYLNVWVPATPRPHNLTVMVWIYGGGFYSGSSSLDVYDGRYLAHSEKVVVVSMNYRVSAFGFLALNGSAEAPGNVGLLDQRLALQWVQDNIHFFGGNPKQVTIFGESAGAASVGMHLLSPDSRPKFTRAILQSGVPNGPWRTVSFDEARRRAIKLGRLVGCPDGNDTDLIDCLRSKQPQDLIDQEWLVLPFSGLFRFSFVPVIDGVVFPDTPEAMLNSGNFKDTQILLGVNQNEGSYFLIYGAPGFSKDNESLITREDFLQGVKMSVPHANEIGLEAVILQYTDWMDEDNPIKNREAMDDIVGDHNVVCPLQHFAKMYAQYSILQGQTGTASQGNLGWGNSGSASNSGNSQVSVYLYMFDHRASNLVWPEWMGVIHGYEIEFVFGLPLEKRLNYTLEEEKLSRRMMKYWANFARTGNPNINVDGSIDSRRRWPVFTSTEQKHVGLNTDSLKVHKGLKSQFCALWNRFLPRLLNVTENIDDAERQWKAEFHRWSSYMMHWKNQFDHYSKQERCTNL
Amyloid-beta precursor protein (Homo sapiens), sequence (P05067 whole entry): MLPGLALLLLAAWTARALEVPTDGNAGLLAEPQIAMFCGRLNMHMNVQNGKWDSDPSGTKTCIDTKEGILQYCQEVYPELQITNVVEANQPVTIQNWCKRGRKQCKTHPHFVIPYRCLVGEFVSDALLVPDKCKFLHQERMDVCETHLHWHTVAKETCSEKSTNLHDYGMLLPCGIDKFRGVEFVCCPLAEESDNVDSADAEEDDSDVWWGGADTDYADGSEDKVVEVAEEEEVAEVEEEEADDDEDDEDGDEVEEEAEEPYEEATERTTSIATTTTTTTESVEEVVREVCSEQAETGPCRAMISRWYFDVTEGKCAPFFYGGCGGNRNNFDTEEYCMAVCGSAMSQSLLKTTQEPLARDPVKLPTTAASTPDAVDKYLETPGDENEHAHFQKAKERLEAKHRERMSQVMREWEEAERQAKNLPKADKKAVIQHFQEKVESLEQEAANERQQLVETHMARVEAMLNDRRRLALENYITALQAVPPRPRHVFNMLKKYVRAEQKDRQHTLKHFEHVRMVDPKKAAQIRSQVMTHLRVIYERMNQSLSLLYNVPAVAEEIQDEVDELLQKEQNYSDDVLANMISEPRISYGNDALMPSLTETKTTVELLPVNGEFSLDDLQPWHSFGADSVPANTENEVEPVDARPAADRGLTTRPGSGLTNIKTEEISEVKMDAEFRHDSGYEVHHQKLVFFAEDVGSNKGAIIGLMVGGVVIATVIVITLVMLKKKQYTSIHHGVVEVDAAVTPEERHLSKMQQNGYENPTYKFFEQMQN
Cholinesterase (Homo sapiens), sequence (P06276 whole entry): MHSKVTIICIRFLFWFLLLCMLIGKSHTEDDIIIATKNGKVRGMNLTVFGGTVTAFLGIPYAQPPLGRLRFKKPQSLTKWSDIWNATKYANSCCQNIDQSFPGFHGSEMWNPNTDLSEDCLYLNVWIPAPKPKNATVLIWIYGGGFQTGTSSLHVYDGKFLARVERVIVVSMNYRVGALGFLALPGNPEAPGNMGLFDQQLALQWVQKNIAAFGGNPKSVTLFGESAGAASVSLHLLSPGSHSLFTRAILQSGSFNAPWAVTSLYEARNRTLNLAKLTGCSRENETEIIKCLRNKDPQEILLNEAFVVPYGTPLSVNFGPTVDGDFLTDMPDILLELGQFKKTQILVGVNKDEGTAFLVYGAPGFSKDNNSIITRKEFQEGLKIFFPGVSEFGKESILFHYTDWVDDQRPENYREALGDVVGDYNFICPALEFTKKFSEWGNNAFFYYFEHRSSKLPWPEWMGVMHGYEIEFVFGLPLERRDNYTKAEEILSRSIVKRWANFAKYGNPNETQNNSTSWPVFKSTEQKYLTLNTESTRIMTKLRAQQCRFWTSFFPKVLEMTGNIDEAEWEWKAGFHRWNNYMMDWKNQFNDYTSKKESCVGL

At Acetylcholinesterase [1], `C#CCSC[C@@H](N)C(=O)NCCCNc1c2c(nc3cc(Cl)ccc13)CCCC2` displayed an IC50 of 560 nM. This lies in the sub-micromolar range.
`C#CCN(C)Cc1cc2ccccc2oc1=O` returned an IC50 against Acetylcholinesterase [2] of 2780 to 14400 nM.
As for `C#CCSC[C@@H](N)C(=O)NCCCCNc1c2c(nc3ccccc13)CCCC2`, the half-maximal inhibitory concentration (IC50) against Acetylcholinesterase [1] came out at 1210 nM.
`C#CCNc1c2c(nc3ccccc13)CCCC2`: the IC50 is 50.7 nM against Acetylcholinesterase [3], 51.3 to 106 nM at Acetylcholinesterase [4] and 77.6 nM at Cholinesterase [5].
Consider `C#CCN(C)Cc1cc2ccc(OC)cc2oc1=O`, for which the half-inhibitory concentration (IC50) against Acetylcholinesterase [2] lay in the range of 2780 to 14400 nM.
`C=CCSCC(NC(=O)CCCCCNc1c2c(nc3cc(Cl)ccc13)CCCC2)C(=O)Nc1nc2ccccc2s1` (stereo unspecified): the half-maximal inhibitory concentration (IC50) against Acetylcholinesterase [1] turned out to be 280 nM.
For the molecule `C#CCNCCNc1c2c(nc3ccccc13)CCCC2`, at Acetylcholinesterase [4], half-maximal inhibition (IC50) was put at 226 nM.
In the case of `C#CCN(C)c1nc(NCCCCC2CCN(Cc3ccccc3)CC2)c(C#N)cc1C#N`, the values for the IC50 against Acetylcholinesterase [6] and against Cholinesterase [7] were 1.1 nM and 600 nM, respectively.
As for `C#CCSCC(NC(=O)CCCNc1c2c(nc3cc(Cl)ccc13)CCCC2)C(=O)Nc1nc2ccccc2s1` (stereo unspecified), the inhibition in assay [8] worked out at 37.6%; in assay [9] it was 24.1%. At Acetylcholinesterase [1], this molecule had an IC50 of 250 nM.
Turning to `C#CCN[C@@H]1CCc2ccc(OC(=O)N(C)CC)cc21` [LADOSTIGIL], the inhibition at 26 mg/kg in assay [10] and in assay [11] was 70% throughout.
Consider `Nc1c2c(nc3cc(Cl)ccc13)CCCC2`, for which, at Acetylcholinesterase [4], half-maximal inhibition (IC50) was put at 23.5 nM.
Take `C#CCSCC(NC(=O)CCCCCNc1c2c(nc3ccccc13)CCCC2)C(=O)Nc1nc2ccccc2s1` (stereo unspecified): the IC50 against Acetylcholinesterase [1] fell in the range of 250 to 280 nM.
For the molecule `C#CCN(CC#C)CCNc1c2c(nc3ccccc13)CCCC2`, the figures for the IC50 at Acetylcholinesterase [4] and at Cholinesterase [5] were 339 nM and 353 nM, respectively.
On Acetylcholinesterase [1], `C=CCSCC(NC(=O)CCCCCNc1c2c(nc3ccccc13)CCCC2)C(=O)Nc1nc2ccccc2s1` (stereo unspecified) showed a 50% inhibitory concentration (IC50) of 250 to 280 nM. Further, the inhibition in [9] came out at 78.2%.
For the molecule `C=CCSCC(NC(=O)CCCNc1c2c(nc3ccccc13)CCCC2)C(=O)Nc1nc2ccccc2s1` (stereo unspecified), the 50% inhibitory concentration (IC50) against Acetylcholinesterase [1] lay within 250 to 280 nM.
Regarding `C#CCSCC(NC(=O)CCCNc1c2c(nc3ccccc13)CCCC2)C(=O)Nc1nc2ccccc2s1` (stereo unspecified), the 50% inhibitory concentration (IC50) on Acetylcholinesterase [1] lay in the range of 250 to 280 nM. The inhibition in assay [9] turned out to be 77.2%.
In the case of `C#CCNc1c2c(nc3cc(Cl)ccc13)CCCC2`, the values for the IC50 against Acetylcholinesterase [3], at Acetylcholinesterase [4] and against Cholinesterase [5] were 9.4 nM, 11.2 nM and 83.5 nM, respectively.
As for `C=CCSCC(NC(=O)CCCNc1c2c(nc3cc(Cl)ccc13)CCCC2)C(=O)Nc1nc2ccccc2s1` (stereo unspecified), the values for the inhibition in [8] and in assay [9] were 56.6% and 31.6%, respectively. The IC50 at Acetylcholinesterase [1] fell in the range of 250 to 280 nM.
As to `C#CCN(C)Cc1cc2cc(OC)c(O)cc2oc1=O`, the half-maximal inhibitory concentration (IC50) at Acetylcholinesterase [2] fell in the range of 2780 to 14400 nM.
For `C=CCSC[C@@H](N)C(=O)NCCCNc1c2c(nc3ccccc13)CCCC2`, the IC50 against Acetylcholinesterase [1] was 880 nM.
Take `CCN(C)C(=O)Oc1cccc([C@H](C)N(C)C)c1`: the inhibition was determined as 25% in [12] and 40% against Acetylcholinesterase [13].
As to `C#CCSCC(NC(=O)CCCCCNc1c2c(nc3cc(Cl)ccc13)CCCC2)C(=O)Nc1nc2ccccc2s1` (stereo unspecified), the concentration for half-maximal inhibition (IC50) against Acetylcholinesterase [1] lay within 250 to 280 nM.
On to `C#CCN(C)Cc1cc2cc(OCCCC3CCN(Cc4ccccc4)CC3)ccc2n1C`, for which the 50% inhibitory concentration (IC50) in [14] is 177 nM; in assay [15] it was 5.44 nM.
For `C#CCN(CC#C)c1c2c(nc3cc(Cl)ccc13)CCCC2`, the IC50 is 884 nM at Acetylcholinesterase [4] and 5380 nM on Cholinesterase [5].
For the molecule `C=CCSC[C@@H](N)C(=O)NCCCNc1c2c(nc3cc(Cl)ccc13)CCCC2`, at Acetylcholinesterase [1], it took 300 nM to reach half-maximal inhibition (IC50).
